Reference: patent US20250171430A1, “PYRAZOLYL COMPOUNDS AS KV7 CHANNEL ACTIVATORS” (Biohaven Therapeutics Ltd., priority 2022, published 2025)

biological target: T1, Kv7.2/7.3 (Homo sapiens, UniProt O43525+O43526); test: Kv7.2/7.3 Activation Assay (Thallium Flux Assay); format: cell-based; settings: hKV7.2/7.3 cell line; test compound at single concentration of 10 μM; fluorescence at 90 sec normalized to positive control (retigabine, 30 μM)
T1 construct: Kv7.2 tetracycline-induced, Kv7.3 constitutive
How it was run: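 Human Kv7.2/7.3 cells with Kv7.2 induced overnight by 10 ng/mL tetracycline were loaded with FluxOR II Green for 1 h at 37 °C. Compounds were tested at 10 μM in 0.1% DMSO/extracellular solution, pH 7.4. Thallium/potassium stimulus was added after a 15 s baseline, and 90 s fluorescence (ex 475/em 530 nm) was normalized to 30 μM retigabine.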

| Structure (SMILES) | Kv7.2/7.3 Activity |
| --- | --- |
| Cn1nc(NC(=O)[C@@H]2CC2(F)F)c(C2CCC2)c1-c1ccc(Cl)cc1 [Compound 223, (S)-N-(5-(4-chlorophenyl)-4-cyclobutyl-1-methyl-1H-pyrazol-3-yl)-2,2-difluorocyclopropane-1-carboxamide] | + (“+” Moderate Activity 0.15-0.7) |
| Cn1nc(NC(=O)[C@H]2CC2(F)F)c(C2CCC2)c1-c1ccc(Cl)cc1 [Compound 224, (R)-N-(5-(4-chlorophenyl)-4-cyclobutyl-1-methyl-1H-pyrazol-3-yl)-2,2-difluorocyclopropane-1-carboxamide] | − (“−” No Activity < 0.15) |
| Cc1nnsc1-c1c(C2CCC2)c(NC(=O)C2CC(F)(F)C2)nn1C [Compound 225, N-(4-cyclobutyl-1-methyl-5-(4-methyl-1,2,3-thiadiazol-5-yl)-1H-pyrazol-3-yl)-3,3-difluorocyclobutane-1-carboxamide] | + (“+” Moderate Activity 0.15-0.7) |
| Cn1nc(NC(=O)C2COC2)c(C2CCC2)c1-c1ccc(F)cc1 [Compound 227, N-(4-cyclobutyl-5-(4-fluorophenyl)-1-methyl-1H-pyrazol-3-yl)oxetane-3-carboxamide] | − (“−” No Activity < 0.15) |
| Cn1nc(NC(=O)C2CS(=O)(=O)C2)c(C2CCC2)c1-c1ccc(F)cc1 [Compound 228, N-(4-cyclobutyl-5-(4-fluorophenyl)-1-methyl-1H-pyrazol-3-yl)thietane-3-carboxamide 1,1-dioxide] | − (“−” No Activity < 0.15) |
| O=C(Nc1nn(CCO)c(-c2ccc(Cl)s2)c1C1CCC1)C1CC(F)(F)C1 [Compound 229, N-(5-(5-chlorothiophen-2-yl)-4-cyclobutyl-1-(2-hydroxyethyl)-1H-pyrazol-3-yl)-3,3-difluorocyclobutane-1-carboxamide] | ++ (“++” High Activity ≥ 0.7) |
| Cn1nc(NC(=O)C[C@@H]2CC(F)(F)C2(F)F)c(C2CCC2)c1-c1ccc(Cl)s1 [Compound 230, (R)-N-(5-(5-chlorothiophen-2-yl)-4-cyclobutyl-1-methyl-1H-pyrazol-3-yl)-2-(2,2,3,3-tetrafluorocyclobutyl)acetamide] | ++ (“++” High Activity ≥ 0.7) |
| Cn1nc(NC(=O)C[C@H]2CC(F)(F)C2(F)F)c(C2CCC2)c1-c1ccc(Cl)s1 [Compound 231, (S)-N-(5-(5-chlorothiophen-2-yl)-4-cyclobutyl-1-methyl-1H-pyrazol-3-yl)-2-(2,2,3,3-tetrafluorocyclobutyl)acetamide] | ++ (“++” High Activity ≥ 0.7) |
| Cn1nc(NC(=O)C23CC(C(F)(F)F)(C2)C3)c(C2CCC2)c1-c1ccc(Cl)s1 [Compound 232, N-(5-(5-chlorothiophen-2-yl)-4-cyclobutyl-1-methyl-1H-pyrazol-3-yl)-3-(trifluoromethyl)bicyclo[1.1.1]pentane-1-carboxamide] | ++ (“++” High Activity ≥ 0.7) |
| C[C@@H](C(=O)Nc1nn(C)c(-c2ccc(Cl)s2)c1C1CCC1)C1(C(F)(F)F)CC1 [Compound 234, (R)-N-(5-(5-chlorothiophen-2-yl)-4-cyclobutyl-1-methyl-1H-pyrazol-3-yl)-2-(1-(trifluoromethyl)cyclopropyl)propanamide] | ++ (“++” High Activity ≥ 0.7) |
| Cn1nc(NC(=O)C[C@@H]2CC(F)(F)C2(F)F)c(C2CCC2)c1-c1ccc(F)c(F)c1 [Compound 235, (R)-N-(4-cyclobutyl-5-(3,4-difluorophenyl)-1-methyl-1H-pyrazol-3-yl)-2-(2,2,3,3-tetrafluorocyclobutyl)acetamide] | ++ (“++” High Activity ≥ 0.7) |
| Cn1nc(NC(=O)N[C@H]2CCC(F)(F)C2)c(C2CCC2)c1-c1ccc(F)cc1 [Compound 237, (S)-1-(4-cyclobutyl-5-(4-fluorophenyl)-1-methyl-1H-pyrazol-3-yl)-3-(3,3-difluorocyclopentyl)urea] | + (“+” Moderate Activity 0.15-0.7) |
| Cn1nc(NC(=O)N[C@@H]2CCC(F)(F)C2)c(C2CCC2)c1-c1ccc(F)cc1 [Compound 238, (R)-1-(4-cyclobutyl-5-(4-fluorophenyl)-1-methyl-1H-pyrazol-3-yl)-3-(3,3-difluorocyclopentyl)urea] | + (“+” Moderate Activity 0.15-0.7) |
| Cc1nnc(-c2c(C3CCC3)c(NC(=O)CC3CC(F)(F)C3)nn2C)s1 [Compound 239, N-(4-cyclobutyl-1-methyl-5-(5-methyl-1,3,4-thiadiazol-2-yl)-1H-pyrazol-3-yl)-2-(3,3-difluorocyclobutyl)acetamide] | − (“−” No Activity < 0.15) |
| Cn1nc(NC(=O)NCC(F)(F)F)c(C2CCC2)c1-c1ccc(F)cc1 [Compound 240, 1-(4-cyclobutyl-5-(4-fluorophenyl)-1-methyl-1H-pyrazol-3-yl)-3-(2,2,2-trifluoroethyl)urea] | + (“+” Moderate Activity 0.15-0.7) |
| Cn1nc(NC(=O)NCC2CC(F)(F)C2)c(C2CCC2)c1-c1ccc(F)cc1 [Compound 242, 1-(4-cyclobutyl-5-(4-fluorophenyl)-1-methyl-1H-pyrazol-3-yl)-3-((3,3-difluorocyclobutyl)methyl)urea] | + (“+” Moderate Activity 0.15-0.7) |
| Cn1nc(NC(=O)C2CC(F)(F)C2)c(C2CCC2)c1-c1ccc(C(C)(C)O)s1 [Compound 247, N-(4-cyclobutyl-5-(5-(2-hydroxypropan-2-yl)thiophen-2-yl)-1-methyl-1H-pyrazol-3-yl)-3,3-difluorocyclobutane-1-carboxamide] | − (“−” No Activity < 0.15) |
| Cn1nc(NC(=O)C2CC3(C2)CC(F)(F)C3)c(C2CCC2)c1-c1ccc(Cl)s1 [Compound 249, N-(5-(5-chlorothiophen-2-yl)-4-cyclobutyl-1-methyl-1H-pyrazol-3-yl)-6,6-difluorospiro[3.3]heptane-2-carboxamide] | ++ (“++” High Activity ≥ 0.7) |

Results, then the compound that gave them:

| Kv7.2/7.3 Activity | Structure (SMILES) |
| --- | --- |
| ++ (“++” High Activity ≥ 0.7) | Cn1nc(NC(=O)C2CC(F)(F)C2)c(C2CCC2)c1-c1ccc(Cl)cc1 [Compound 220, N-(5-(4-chlorophenyl)-4-cyclobutyl-1-methyl-1H-pyrazol-3-yl)-3,3-difluorocyclobutane-1-carboxamide] |
| + (“+” Moderate Activity 0.15-0.7) | Cn1nc(NC(=O)C2(C)CC(F)(F)C2)c(C2CCC2)c1-c1ccc(Cl)cc1 [Compound 221, N-(5-(4-chlorophenyl)-4-cyclobutyl-1-methyl-1H-pyrazol-3-yl)-3,3-difluoro-1-methylcyclobutane-1-carboxamide] |
| ++ (“++” High Activity ≥ 0.7) | Cn1nc(NC(=O)CC2CC(F)(F)C2)c(C2CCC2)c1-c1ccc(Cl)cc1 [Compound 222, N-(5-(4-chlorophenyl)-4-cyclobutyl-1-methyl-1H-pyrazol-3-yl)-2-(3,3-difluorocyclobutyl)acetamide] |
| ++ (“++” High Activity ≥ 0.7) | Cn1nc(NC(=O)OC2CC(F)(F)C2)c(C2CCC2)c1-c1ccc(Cl)s1 [Compound 226, 3,3-difluorocyclobutyl (5-(5-chlorothiophen-2-yl)-4-cyclobutyl-1-methyl-1H-pyrazol-3-yl)carbamate] |
| ++ (“++” High Activity ≥ 0.7) | CO[C@@H](CC(=O)Nc1nn(C)c(-c2ccc(Cl)s2)c1C1CCC1)C(F)(F)F [Compound 233, (S)-N-(5-(5-chlorothiophen-2-yl)-4-cyclobutyl-1-methyl-1H-pyrazol-3-yl)-4,4,4-trifluoro-3-methoxybutanamide] |
| ++ (“++” High Activity ≥ 0.7) | Cn1nc(NC(=O)C[C@H]2CC(F)(F)C2(F)F)c(C2CCC2)c1-c1ccc(F)c(F)c1 [Compound 236, (S)-N-(4-cyclobutyl-5-(3,4-difluorophenyl)-1-methyl-1H-pyrazol-3-yl)-2-(2,2,3,3-tetrafluorocyclobutyl)acetamide] |
| ++ (“++” High Activity ≥ 0.7) | Cn1nc(NC(=O)OC2CC(F)(F)C2)c(C2CCC2)c1-c1ccc(F)cc1 [Compound 241, 3,3-difluorocyclobutyl (4-cyclobutyl-5-(4-fluorophenyl)-1-methyl-1H-pyrazol-3-yl)carbamate] |
| ++ (“++” High Activity ≥ 0.7) | Cn1nc(NC(=O)OCC2CC(F)(F)C2)c(C2CCC2)c1-c1ccc(F)cc1 [Compound 243, (3,3-difluorocyclobutyl)methyl (4-cyclobutyl-5-(4-fluorophenyl)-1-methyl-1H-pyrazol-3-yl)carbamate] |
| − (“−” No Activity < 0.15) | Cn1nc(NC(=O)NC2CC3(C2)CC(F)(F)C3)c(C2CCC2)c1-c1ccc(F)cc1 [Compound 244, 1-(4-cyclobutyl-5-(4-fluorophenyl)-1-methyl-1H-pyrazol-3-yl)-3-(6,6-difluorospiro[3.3]heptan-2-yl)urea] |
| + (“+” Moderate Activity 0.15-0.7) | Cn1nc(NC(=O)NC(C)(C)C)c(C2CCC2)c1-c1ccc(F)cc1 [Compound 245, 1-(tert-butyl)-3-(4-cyclobutyl-5-(4-fluorophenyl)-1-methyl-1H-pyrazol-3-yl)urea] |
| − (“−” No Activity < 0.15) | COCCNC(=O)Nc1nn(C)c(-c2ccc(F)cc2)c1C1CCC1 [Compound 246, 1-(4-cyclobutyl-5-(4-fluorophenyl)-1-methyl-1H-pyrazol-3-yl)-3-(2-methoxyethyl)urea] |
| ++ (“++” High Activity ≥ 0.7) | Cn1nc(NC(=O)C2CSC2)c(C2CCC2)c1-c1ccc(Cl)s1 [Compound 248, N-(5-(5-chlorothiophen-2-yl)-4-cyclobutyl-1-methyl-1H-pyrazol-3-yl)thietane-3-carboxamide] |
